molecular target: T1, human JAK2 (Homo sapiens, UniProt O60674); experiment: In vitro JAK kinase assay (HTRF, phosphorylation of biotinylated peptide); format: biochemical; conditions: catalytic domain a.a. 828-1132, 30 μM ATP, 500 nM peptide, room temperature 1 hr; read-out: JAK-2 IC50
T1 construct: JAK2 (a.a. 828-1132); His tag (N); made in house; host or cells: insect cells (baculovirus)
Method in brief: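 His-tagged human JAK2 catalytic domain (a.a. 828-1132), baculovirus/insect-cell expressed; phosphorylation of 500 nM biotinylated peptide at 30 μM ATP in 50 mM Tris pH 7.8, 100 mM NaCl, 5 mM DTT, 0.01% BSA. 1 h at room temperature, EDTA stop, HTRF read (Eu-Py20/SA-APC); IC50.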

T1 sequence (O60674 828-1132): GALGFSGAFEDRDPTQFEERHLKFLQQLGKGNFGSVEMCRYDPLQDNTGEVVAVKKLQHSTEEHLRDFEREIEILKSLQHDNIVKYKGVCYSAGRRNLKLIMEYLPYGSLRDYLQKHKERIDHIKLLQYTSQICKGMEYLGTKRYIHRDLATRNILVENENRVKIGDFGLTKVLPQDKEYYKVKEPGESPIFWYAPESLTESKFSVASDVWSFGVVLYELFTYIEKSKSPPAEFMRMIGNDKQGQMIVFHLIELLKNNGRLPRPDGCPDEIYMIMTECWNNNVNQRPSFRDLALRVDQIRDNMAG

IC50, < 100 nM:
N#CCC(C1CCCC1)n1cc(-c2ccnc(Nc3cccc(C(=O)N4CCC(O)CC4)c3)n2)cn1 (racemic) [Example 111, 3-cyclopentyl-3-(4-(2-(3-(4-hydroxypiperidine-1-carbonyl)phenylamino)pyrimidin-4-yl)-1H-pyrazol-1-yl)propanenitrile]
N#CCC(C1CCCC1)n1cc(-c2ccnc(Nc3cccc(C(=O)NCCO)c3)n2)cn1 (racemic) [Example 112, 3-(4-(1-(2-cyano-1-cyclopentylethyl)-1H-pyrazol-4-yl)pyrimidin-2-ylamino)-N-(2-hydroxyethyl)benzamide]
CCS(=O)(=O)Nc1cccc(Nc2nccc(-c3cnn(C(CC#N)C4CCCC4)c3)n2)c1 (racemic) [Example 114, N-(3-(4-(1-(2-cyano-1-cyclopentylethyl)-1H-pyrazol-4-yl)pyrimidin-2-ylamino)phenyl)ethanesulfonamide]
CS(=O)(=O)Nc1cccc(Nc2nccc(-c3cnn(C(CC#N)C4CCCC4)c3)n2)c1 (racemic) [Example 115, N-(3-(4-(1-(2-cyano-1-cyclopentylethyl)-1H-pyrazol-4-yl)pyrimidin-2-ylamino)phenyl)methanesulfonamide]
COC(=O)Nc1cccc(Nc2nccc(-c3cnn(C(CC#N)C4CCCC4)c3)n2)c1 (racemic) [Example 116, Methyl 3-(4-(1-(2-cyano-1-cyclopentylethyl)-1H-pyrazol-4-yl)pyrimidin-2-ylamino)phenylcarbamate]
CC(=O)Nc1cccc(Nc2nccc(-c3cnn(C(CC#N)C4CCCC4)c3)n2)c1 (racemic) [Example 117, N-(3-(4-(1-(2-cyano-1-cyclopentylethyl)-1H-pyrazol-4-yl)pyrimidin-2-ylamino)phenyl)acetamide]
N#CCC(C1CCCC1)n1cc(-c2ccnc(Nc3cccc(NC(=O)CN4CCCC4)c3)n2)cn1 (racemic) [Example 118, N-(3-(4-(1-(2-cyano-1-cyclopentylethyl)-1H-pyrazol-4-yl)pyrimidin-2-ylamino)phenyl)-2-(pyrrolidin-1-yl)acetamide]
CN1CCN(C(=O)c2ccc(Nc3nccc(-c4cnn(C(CC#N)C5CCCC5)c4)n3)cc2)CC1 (racemic) [Example 120, 3-cyclopentyl-3-(4-(2-(4-(4-methylpiperazine-1-carbonyl)phenylamino)pyrimidin-4-yl)-1H-pyrazol-1-yl)propanenitrile]
N#CCC(C1CCCC1)n1cc(-c2ccnc(Nc3ccc(C(=O)N4CCN(CCO)CC4)cc3)n2)cn1 (racemic) [Example 121, 3-cyclopentyl-3-(4-(2-(4-(4-(2-hydroxyethyl)piperazine-1-carbonyl)phenylamino)pyrimidin-4-yl)-1H-pyrazol-1-yl)propanenitrile]
N#CCC(C1CCCC1)n1cc(-c2ccnc(Nc3ccc(C(=O)N4CCCC4)cc3)n2)cn1 (racemic) [Example 122, 3-cyclopentyl-3-(4-(2-(4-(pyrrolidine-1-carbonyl)phenylamino)pyrimidin-4-yl)-1H-pyrazol-1-yl)propanenitrile]
N#CCC(C1CCCC1)n1cc(-c2ccnc(Nc3ccc(C(=O)N4CCNC(=O)C4)cc3)n2)cn1 (racemic) [Example 123, 3-cyclopentyl-3-(4-(2-(4-(3-oxopiperazine-1-carbonyl)phenylamino)pyrimidin-4-yl)-1H-pyrazol-1-yl)propanenitrile]
N#CCC(C1CCCC1)n1cc(-c2ccnc(Nc3ccc(C(=O)N4CCC(O)CC4)cc3)n2)cn1 (racemic) [Example 124, 3-cyclopentyl-3-(4-(2-(4-(4-hydroxypiperidine-1-carbonyl)phenylamino)pyrimidin-4-yl)-1H-pyrazol-1-yl)propanenitrile]
CCCN(CC1CC1)C(=O)c1ccc(Nc2nccc(-c3cnn(C(CC#N)C4CCCC4)c3)n2)cc1 (racemic) [Example 125, 4-(4-(1-(2-cyano-1-cyclopentylethyl)-1H-pyrazol-4-yl)pyrimidin-2-ylamino)-N-(cyclopropylmethyl)-N-propylbenzamide]
N#CCC(C1CCCC1)n1cc(-c2ccnc(Nc3ccc(C(=O)NCC4CC4)cc3)n2)cn1 (racemic) [Example 126, 4-(4-(1-(2-cyano-1-cyclopentylethyl)-1H-pyrazol-4-yl)pyrimidin-2-ylamino)-N-(cyclopropylmethyl)benzamide]
N#CCC(C1CCCC1)n1cc(-c2ccnc(Nc3ccc(C(=O)N4CCC4)cc3)n2)cn1 (racemic) [Example 128, 3-(4-(2-(4-(azetidine-1-carbonyl)phenylamino)pyrimidin-4-yl)-1H-pyrazol-1-yl)-3-cyclopentylpropanenitrile]
N#CCC(C1CCCC1)n1cc(-c2ccnc(Nc3ccc(N4CCCC4=O)cc3)n2)cn1 (racemic) [Example 129, 3-cyclopentyl-3-(4-(2-(4-(2-oxopyrrolidin-1-yl)phenylamino)pyrimidin-4-yl)-1H-pyrazol-1-yl)propanenitrile]
COc1cnc(Nc2ccc(N3CCCC3=O)cc2)nc1-c1cnn(C(CC#N)C2CCCC2)c1 (racemic) [Example 130, 3-cyclopentyl-3-(4-(5-methoxy-2-(4-(2-oxopyrrolidin-1-yl)phenylamino)pyrimidin-4-yl)-1H-pyrazol-1-yl)propanenitrile]
COc1cnc(Nc2ccc(-c3cnco3)cc2)nc1-c1cnn(C(CC#N)C2CCCC2)c1 (racemic) [Example 131, 3-cyclopentyl-3-(4-(5-methoxy-2-(4-(oxazol-5-yl)phenylamino)pyrimidin-4-yl)-1H-pyrazol-1-yl)propanenitrile]
COc1cnc(Nc2cccc(-c3cnco3)c2)nc1-c1cnn(C(CC#N)C2CCCC2)c1 (racemic) [Example 132, 3-cyclopentyl-3-(4-(5-methoxy-2-(3-(oxazol-5-yl)phenylamino)pyrimidin-4-yl)-1H-pyrazol-1-yl)propanenitrile]
COc1cnc(Nc2ccc(N3CCOCC3=O)cc2)nc1-c1cnn(C(CC#N)C2CCCC2)c1 (racemic) [Example 133, 3-cyclopentyl-3-(4-(5-methoxy-2-(4-(3-oxomorpholino)phenylamino)pyrimidin-4-yl)-1H-pyrazol-1-yl)propanenitrile]
COc1cnc(Nc2cccc(-c3ccnc(C)n3)c2)nc1-c1cnn(C(CC#N)C2CCCC2)c1 (racemic) [Example 134, 3-cyclopentyl-3-(4-(5-methoxy-2-(3-(2-methylpyrimidin-4-yl)phenylamino)pyrimidin-4-yl)-1H-pyrazol-1-yl)propanenitrile]
COc1cnc(Nc2ccc(N3CCCCC3=O)cc2)nc1-c1cnn(C(CC#N)C2CCCC2)c1 (racemic) [Example 135, 3-cyclopentyl-3-(4-(5-methoxy-2-(4-(2-oxopiperidin-1-yl)phenylamino)pyrimidin-4-yl)-1H-pyrazol-1-yl)propanenitrile]
COc1cnc(Nc2ccc(N3CCOC3=O)cc2)nc1-c1cnn(C(CC#N)C2CCCC2)c1 (racemic) [Example 136, 3-cyclopentyl-3-(4-(5-methoxy-2-(4-(2-oxooxazolidin-3-yl)phenylamino)pyrimidin-4-yl)-1H-pyrazol-1-yl)propanenitrile]
CN1CCN(C(=O)c2cccc(Nc3nccc(-c4cnn(C(CC#N)C5CCCC5)c4)n3)c2)CC1 (racemic) [Example 137, 3-cyclopentyl-3-(4-(2-(3-(4-methylpiperazine-1-carbonyl)phenylamino)pyrimidin-4-yl)-1H-pyrazol-1-yl)propanenitrile]
N#CCC(C1CCCC1)n1cc(-c2ccnc(Nc3cccc(C(=O)N4CCN(CCO)CC4)c3)n2)cn1 (racemic) [Example 138, 3-cyclopentyl-3-(4-(2-(3-(4-(2-hydroxyethyl)piperazine-1-carbonyl)phenylamino)pyrimidin-4-yl)-1H-pyrazol-1-yl)propanenitrile]
N#CCC(C1CCCC1)n1cc(-c2ccnc(Nc3cccc(C(=O)N4CCCC4)c3)n2)cn1 (racemic) [Example 139, 3-cyclopentyl-3-(4-(2-(3-(pyrrolidine-1-carbonyl)phenylamino)pyrimidin-4-yl)-1H-pyrazol-1-yl)propanenitrile]
N#CCC(C1CCCC1)n1cc(-c2ccnc(Nc3cccc(C(=O)N4CCNC(=O)C4)c3)n2)cn1 (racemic) [Example 140, 3-cyclopentyl-3-(4-(2-(3-(3-oxopiperazine-1-carbonyl)phenylamino)pyrimidin-4-yl)-1H-pyrazol-1-yl)propanenitrile]
N#CCC(C1CCCC1)n1cc(-c2ccnc(Nc3cccc(C(=O)N4CCC4)c3)n2)cn1 (racemic) [Example 142, 3-(4-(2-(3-(azetidine-1-carbonyl)phenylamino)pyrimidin-4-yl)-1H-pyrazol-1-yl)-3-cyclopentylpropanenitrile]
CC(=O)N1CCN(C(=O)c2cccc(Nc3nccc(-c4cnn(C(CC#N)C5CCCC5)c4)n3)c2)CC1 (racemic) [Example 143, 3-(4-(2-(3-(4-acetylpiperazine-1-carbonyl)phenylamino)pyrimidin-4-yl)-1H-pyrazol-1-yl)-3-cyclopentylpropanenitrile]
N#CCC(C1CCCC1)n1cc(-c2ccnc(Nc3cccc(C(=O)N4CCC(Cc5cccnc5)CC4)c3)n2)cn1 (racemic) [Example 144, 3-cyclopentyl-3-(4-(2-(3-(4-(pyridin-3-ylmethyl)piperidine-1-carbonyl)phenylamino)pyrimidin-4-yl)-1H-pyrazol-1-yl)propanenitrile]
N#CCC(C1CCCC1)n1cc(-c2ccnc(Nc3cccc(C(=O)NCc4cccnc4)c3)n2)cn1 (racemic) [Example 146, 3-(4-(1-(2-cyano-1-cyclopentylethyl)-1H-pyrazol-4-yl)pyrimidin-2-ylamino)-N-(pyridin-3-ylmethyl)benzamide]
